This is an account of results in US20210253575A1, “PYRROLIDINE AMINE COMPOUNDS FOR THE TREATMENT OF AUTOIMMUNE DISEASE” (Hoffmann-La Roche Inc., priority 2018, published 2021).

This assay deals with T1, human TLR8 (Homo sapiens, UniProt Q9NR97).
T1 sequence (Q9NR97 27-1041): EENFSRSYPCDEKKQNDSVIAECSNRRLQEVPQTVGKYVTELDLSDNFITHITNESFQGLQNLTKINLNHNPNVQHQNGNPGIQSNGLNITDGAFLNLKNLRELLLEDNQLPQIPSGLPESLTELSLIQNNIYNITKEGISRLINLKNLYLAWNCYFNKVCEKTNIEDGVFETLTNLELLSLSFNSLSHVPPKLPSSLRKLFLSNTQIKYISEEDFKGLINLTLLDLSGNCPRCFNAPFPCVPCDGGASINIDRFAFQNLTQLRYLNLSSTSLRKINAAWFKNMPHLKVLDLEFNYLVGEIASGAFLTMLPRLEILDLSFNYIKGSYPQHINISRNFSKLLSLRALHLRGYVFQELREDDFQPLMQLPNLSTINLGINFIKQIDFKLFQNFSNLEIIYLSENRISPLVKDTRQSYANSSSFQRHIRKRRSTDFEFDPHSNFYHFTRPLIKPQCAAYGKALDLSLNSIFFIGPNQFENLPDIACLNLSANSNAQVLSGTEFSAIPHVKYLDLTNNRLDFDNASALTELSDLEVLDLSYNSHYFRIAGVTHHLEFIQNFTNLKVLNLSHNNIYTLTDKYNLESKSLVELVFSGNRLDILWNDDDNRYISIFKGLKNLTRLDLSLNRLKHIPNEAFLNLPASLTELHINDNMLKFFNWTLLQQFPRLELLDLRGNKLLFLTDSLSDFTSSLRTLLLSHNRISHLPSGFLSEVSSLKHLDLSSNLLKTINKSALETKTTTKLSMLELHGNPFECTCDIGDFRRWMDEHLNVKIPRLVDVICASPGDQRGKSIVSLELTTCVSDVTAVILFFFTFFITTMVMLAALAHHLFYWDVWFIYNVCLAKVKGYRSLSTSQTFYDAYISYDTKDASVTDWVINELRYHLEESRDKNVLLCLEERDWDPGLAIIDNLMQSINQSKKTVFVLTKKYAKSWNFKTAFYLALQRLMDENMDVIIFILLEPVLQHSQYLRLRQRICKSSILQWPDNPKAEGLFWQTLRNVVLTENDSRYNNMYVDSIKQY
The assay is described as follows: HEK293-Blue-hTLR-8 cells assay (SEAP reporter, R848 stimulation). The class given is cell-based. Conditions: HEK293-Blue-hTLR8 cells, R848 ligand, 20 hrs incubation. In short, it runs like this:
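Antagonism was measured in HEK293-Blue-hTLR8 cells with an NF-κB/AP-1-driven SEAP reporter. Cells were stimulated with R848 (10 μL of 60 uM stock) alongside compound (1% DMSO) for 20 hrs at 37° C. Supernatant SEAP was read with QUANTI-Blue after 2 hrs, absorbance at 620-655 nm.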
The compound `N#Cc1ccc(N2C[C@H](CN3CCC(N4CCCCCC4)CC3)[C@@H](C(F)(F)F)C2)c2nccnc12` [Example 62, 8-[(3S,4R)-3-[[4-(Azepan-1-yl)-1-piperidyl]methyl]-4-(trifluoromethyl)pyrrolidin-1-yl]quinoxaline-5-carbonitrile] gave an IC50 of 28 nM. That is a double-digit nanomolar value.
As for `N#Cc1ccc(N2C[C@H](CN3C4CCC3CC(N)C4)[C@@H](C(F)(F)F)C2)c2nccnc12` (stereo partly drawn) [Example 63, 8-[(3S,4R)-3-[(3-amino-8-azabicyclo[3.2.1]octan-8-yl)methyl]-4-(trifluoromethyl)pyrrolidin-1-yl]quinoxaline-5-carbonitrile], the figure is 25 nM.
As for `N#Cc1ccc(N2C[C@H](CN3CCC(N)C(F)(F)C3)[C@@H](C(F)(F)F)C2)c2nccnc12` (stereo partly drawn) [Example 64, 8-[(3S,4R)-3-[(4-amino-3,3-difluoro-1-piperidyl)methyl]-4-(trifluoromethyl)pyrrolidin-1-yl]quinoxaline-5-carbonitrile], the figure is 86 nM; as for `N#Cc1ccc(N2CC(CN3CCC4(CCCCN4)CC3)C3(CC3)C2)c2nccnc12` (stereo not shown) [Example 65, 8-[7-(1,9-Diazaspiro[5.5]undecan-9-ylmethyl)-5-azaspiro[2.4]heptan-5-yl]quinoxaline-5-carbonitrile], 92 nM; as for `N#Cc1ccc(N2CC(CN3CCC4NCC4C3)C3(CC3)C2)c2nccnc12` (stereo not shown) [Example 66, 8-[7-(3,7-Diazabicyclo[4.2.0]octan-3-ylmethyl)-5-azaspiro[2.4]heptan-5-yl]quinoxaline-5-carbonitrile], 82 nM.
Then `N#Cc1ccc(N2CC(CN3CCOC4(CCNCC4)C3)C3(CC3)C2)c2nccnc12` (stereo not shown) [Example 67, 8-[7-(1-Oxa-4,9-diazaspiro[5.5]undecan-4-ylmethyl)-5-azaspiro[2.4]heptan-5-yl]quinoxaline-5-carbonitrile], with 41 nM.
As to `N#Cc1ccc(N2CC(CN3CCC(N)CC3)C3(CC3)C2)c2nccnc12` (stereo not shown) [Example 68, 8-[7-[(4-Amino-1-piperidyl)methyl]-5-azaspiro[2.4]heptan-5-yl]quinoxaline-5-carbonitrile], the 50% inhibitory concentration (IC50) was 51 nM.
As for `N#Cc1ccc(N2C[C@H](CN3CCCC(C(N)=O)C3)[C@@H](C(F)(F)F)C2)c2nccnc12` (stereo partly drawn) [Example 69, 1-[[(3S,4R)-1-(S-cyanoquinoxalin-5-yl)-4-(trifluoromethyl)pyrrolidin-3-yl]methyl]piperidine-3-carboxamide], the figure is 729 nM.
The compound `N#Cc1ccc(N2C[C@H](CN3CCC4(CC3)CNCCO4)[C@@H](C(F)(F)F)C2)c2nccnc12` [Example 70, 8-[(3S,4R)-3-(1-oxa-4,9-diazaspiro[5.5]undecan-9-ylmethyl)-4-(trifluoromethyl)pyrrolidin-1-yl]quinoxaline-5-carbonitrile] returned an IC50 of 20 nM.
As for `N#Cc1ccc(N2C[C@H](CNC3CCNCC3)[C@@H](C(F)(F)F)C2)c2nccnc12` [Example 71, 8-[(3S,4R)-3-[(4-piperidylamino)methyl]-4-(trifluoromethyl)pyrrolidin-1-yl]quinoxaline-5-carbonitrile], the midpoint of inhibition, the IC50, lay at 94 nM.
Then `C[C@H]1CN(C[C@H]2CN(c3ccc(C#N)c4nccnc34)C[C@@H]2C(F)(F)F)CC[C@H]1N` [Example 72, 8-[(3S,4R)-3-[[(3S,4R)-4-amino-3-methyl-1-piperidyl]methyl]-4-(trifluoromethyl)pyrrolidin-1-yl]quinoxaline-5-carbonitrile], with 23 nM.
The compound `N#Cc1ccc(N2C[C@H](CN3CC4CCC(C3)C4N)[C@@H](C(F)(F)F)C2)c2nccnc12` (stereo partly drawn) [Example 73, 8-[(3S,4R)-3-[(8-amino-3-azabicyclo[3.2.1]octan-3-yl)methyl]-4-(trifluoromethyl)pyrrolidin-1-yl]quinoxaline-5-carbonitrile] came in with an IC50 of 35 nM.
Turning to `N#Cc1ccc(N2C[C@H](CN3CCC(CN)CC3)[C@@H](C(F)(F)F)C2)c2nccnc12` [Example 74, 8-[(3S,4R)-3-[[4-(aminomethyl)-1-piperidyl]methyl]-4-(trifluoromethyl)pyrrolidin-1-yl]quinoxaline-5-carbonitrile], the concentration for half-maximal inhibition (IC50) was 55 nM.
